Assay results taken from PubChem BioAssay AID1259407 (Chemical Carcinogenesis Research Information System (CCRIS), 2018).
Calls of active or inactive are those of the source. No rule for the calls is given here.

System: CCRIS mutagenicity, Ames/micronucleus/aberration tests
Assay: CCRIS mutagenicity studies
[1] = Test System: AMES SALMONELLA TYPHIMURIUM, Strain/Indicator: TA100, Metabolic Activation: NONE, Method: STANDARD PLATE
[2] = Test System: AMES SALMONELLA TYPHIMURIUM, Strain/Indicator: TA100, Metabolic Activation: RAT, LIVER, S-9, AROCLOR 1254, Method: STANDARD PLATE
[3] = Test System: AMES SALMONELLA TYPHIMURIUM, Strain/Indicator: TA98, Metabolic Activation: HAMSTER, LIVER, S-9, AROCLOR 1254 (10%), Method: PREINCUBATION
[4] = Test System: AMES SALMONELLA TYPHIMURIUM, Strain/Indicator: TA98, Metabolic Activation: NONE, Method: PREINCUBATION
[5] = Test System: AMES SALMONELLA TYPHIMURIUM, Strain/Indicator: TA98, Metabolic Activation: RAT, LIVER, S-9, AROCLOR 1254 (10%), Method: PREINCUBATION
[6] = Test System: AMES SALMONELLA TYPHIMURIUM, Strain/Indicator: TA100, Metabolic Activation: HAMSTER, LIVER, S-9, AROCLOR 1254 (10%), Method: PREINCUBATION
[7] = Test System: AMES SALMONELLA TYPHIMURIUM, Strain/Indicator: TA100, Metabolic Activation: NONE, Method: PREINCUBATION
[8] = Test System: AMES SALMONELLA TYPHIMURIUM, Strain/Indicator: TA100, Metabolic Activation: RAT, LIVER, S-9, AROCLOR 1254 (10%), Method: PREINCUBATION
[9] = Test System: AMES SALMONELLA TYPHIMURIUM, Strain/Indicator: TA1535, Metabolic Activation: HAMSTER, LIVER, S-9, AROCLOR 1254 (10%), Method: PREINCUBATION
[10] = Test System: AMES SALMONELLA TYPHIMURIUM, Strain/Indicator: TA1535, Metabolic Activation: NONE, Method: PREINCUBATION
[11] = Test System: AMES SALMONELLA TYPHIMURIUM, Strain/Indicator: TA1535, Metabolic Activation: RAT, LIVER, S-9, AROCLOR 1254 (10%), Method: PREINCUBATION
[12] = Test System: AMES SALMONELLA TYPHIMURIUM, Strain/Indicator: TA1537, Metabolic Activation: HAMSTER, LIVER, S-9, AROCLOR 1254 (10%), Method: PREINCUBATION
[13] = Test System: AMES SALMONELLA TYPHIMURIUM, Strain/Indicator: TA1537, Metabolic Activation: NONE, Method: PREINCUBATION
[14] = Test System: AMES SALMONELLA TYPHIMURIUM, Strain/Indicator: TA1537, Metabolic Activation: RAT, LIVER, S-9, AROCLOR 1254 (10%), Method: PREINCUBATION

Compound	mutagenic call [1]	mutagenic call [2]	mutagenic call [3]	mutagenic call [4]	mutagenic call [5]	mutagenic call [6]	mutagenic call [7]	mutagenic call [8]	mutagenic call [9]	mutagenic call [10]	mutagenic call [11]	mutagenic call [12]	mutagenic call [13]	mutagenic call [14]	further results
CC(=O)c1ccc[nH]1	inactive; negative	inactive; negative	–	–	–	–	–	–	–	–	–	–	–	–	–
Cn1c([N+](=O)[O-])cnc1C(O)c1cc(C(C)(C)C)cc(C(C)(C)C)c1O (stereo unspecified)	inactive; negative	inactive; negative	–	–	–	–	–	–	–	–	–	–	–	–	mutagenic call (Test System: AMES SALMONELLA TYPHIMURIUM, Strain/Indicator: TA98, Metabolic Activation: NONE, Method: STANDARD PLATE): inactive; negative; mutagenic call (Test System: AMES SALMONELLA TYPHIMURIUM, Strain/Indicator: TA98, Metabolic Activation: RAT, LIVER, S-9, AROCLOR 1254, Method: STANDARD PLATE): inactive; negative; mutagenic call (Test System: AMES SALMONELLA TYPHIMURIUM, Strain/Indicator: TA1535, Metabolic Activation: NONE, Method: STANDARD PLATE): inactive; negative; mutagenic call (Test System: AMES SALMONELLA TYPHIMURIUM, Strain/Indicator: TA1535, Metabolic Activation: RAT, LIVER, S-9, AROCLOR 1254, Method: STANDARD PLATE): inactive; negative; mutagenic call (Test System: AMES SALMONELLA TYPHIMURIUM, Strain/Indicator: TA1537, Metabolic Activation: NONE, Method: STANDARD PLATE): inactive; negative; mutagenic call (Test System: AMES SALMONELLA TYPHIMURIUM, Strain/Indicator: TA1537, Metabolic Activation: RAT, LIVER, S-9, AROCLOR 1254, Method: STANDARD PLATE): inactive; negative; mutagenic call (Test System: AMES SALMONELLA TYPHIMURIUM, Strain/Indicator: TA1538, Metabolic Activation: NONE, Method: STANDARD PLATE): inactive; negative; mutagenic call (Test System: AMES SALMONELLA TYPHIMURIUM, Strain/Indicator: TA1538, Metabolic Activation: RAT, LIVER, S-9, AROCLOR 1254, Method: STANDARD PLATE): inactive; negative
CCN(CC)C(=S)SSC(=S)N(CC)CC	–	–	inactive; negative	inactive; negative	inactive; negative	inactive; negative	inactive; negative	inactive; negative	inactive; negative	inactive; negative	inactive; negative	inactive; negative	inactive; negative	inactive; negative	mutagenic call (Test System: MOUSE LYMPHOMA, Strain/Indicator: L5178Y (TK+/TK-), Metabolic Activation: NONE, Method: SUSPENSION/PLATE): active; positive
CC(CN1c2ccccc2Sc2ccccc21)N(C)C (stereo unspecified)	–	–	inactive; negative	inactive; negative	inactive; negative	inactive; negative	inactive; negative	inactive; negative	inactive; negative	inactive; negative	inactive; negative	inactive; negative	inactive; negative	inactive; negative	mutagenic call (End Point: IN VITRO CHROMOSOMAL ABERRATIONS, Test System: CHINESE HAMSTER OVARY CELLS, Metabolic Activation: NONE): inactive; negative; mutagenic call (End Point: IN VITRO CHROMOSOMAL ABERRATIONS, Test System: CHINESE HAMSTER OVARY CELLS, Metabolic Activation: RAT, LIVER, S-9, AROCLOR 1254): inactive; negative; mutagenic call (Test System: AMES SALMONELLA TYPHIMURIUM, Strain/Indicator: TA97, Metabolic Activation: HAMSTER, LIVER, S-9, AROCLOR 1254 (10 OR 30%), Method: PREINCUBATION): inactive; negative; mutagenic call (Test System: AMES SALMONELLA TYPHIMURIUM, Strain/Indicator: TA97, Metabolic Activation: NONE, Method: PREINCUBATION): inactive; negative; mutagenic call (Test System: AMES SALMONELLA TYPHIMURIUM, Strain/Indicator: TA97, Metabolic Activation: RAT, LIVER, S-9, AROCLOR 1254 (10 OR 30%), Method: PREINCUBATION): inactive; negative; mutagenic call (Test System: AMES SALMONELLA TYPHIMURIUM, Strain/Indicator: TA98, Metabolic Activation: HAMSTER, LIVER, S-9, AROCLOR 1254 (30%), Method: PREINCUBATION): inactive; negative; mutagenic call (Test System: AMES SALMONELLA TYPHIMURIUM, Strain/Indicator: TA98, Metabolic Activation: NONE, Method: SPOT TEST): inactive; negative; mutagenic call (Test System: AMES SALMONELLA TYPHIMURIUM, Strain/Indicator: TA98, Metabolic Activation: RAT, LIVER, S-9, AROCLOR 1254 (30%), Method: PREINCUBATION): inactive; negative; mutagenic call (Test System: AMES SALMONELLA TYPHIMURIUM, Strain/Indicator: TA100, Metabolic Activation: HAMSTER, LIVER, S-9, AROCLOR 1254 (30%), Method: PREINCUBATION): inactive; negative; mutagenic call (Test System: AMES SALMONELLA TYPHIMURIUM, Strain/Indicator: TA100, Metabolic Activation: RAT, LIVER, S-9, AROCLOR 1254 (30%), Method: PREINCUBATION): inactive; negative; mutagenic call (Test System: AMES SALMONELLA TYPHIMURIUM, Strain/Indicator: TA1535, Metabolic Activation: HAMSTER, LIVER, S-9, AROCLOR 1254 (30%), Method: PREINCUBATION): inactive; negative; mutagenic call (Test System: AMES SALMONELLA TYPHIMURIUM, Strain/Indicator: TA1535, Metabolic Activation: RAT, LIVER, S-9, AROCLOR 1254 (30%), Method: PREINCUBATION): inactive; negative; mutagenic call (Test System: CHINESE HAMSTER V-79, Strain/Indicator: V-79/6-THIOGUANINE, Metabolic Activation: NONE): inactive; negative; mutagenic call (Test System: CHINESE HAMSTER V-79, Strain/Indicator: V-79/OUABAIN, Metabolic Activation: NONE): inactive; negative
